Test results from patent US6552080B1, “Fungicidal compounds having a fluorovinyl-or fluoropropenyl-oxyphenyloxime moiety and process for the preparation thereof” (Korea Research Institute of Chemical Technology, priority 1999, dated 2003).
Read-outs that look alike come from different tables or passages of the source.

How the values were obtained:
[1] = tested on: Pyricularia oryzae Carvara KA301; assay type: in vivo; details: Rice Blast
Botrytis cinerae = test: Fungicidal activity against Cucumber Gray Mold Rot (CGM) disease; assay type: in vivo; details: Cucumber Gray Mold Rot; concentration 50 ppm
Procedure: Botrytis cinerae, which was isolated from cucumber infected thereby, was inoculated on a PDA agar medium and cultured under a 12L/12D cycle at 25° C. for 15 days to form spore. The spores were scraped, filtered through a gauze and then suspended in potato dextrose liquid medium at a concentration of 1×10^6 spore/ml. The spore suspension was sprayed on a cucumber plant having one leaf. The cucumber plant was held in a humidified room at 20° C. for 3 days. L.A. on a leaf was measured to calculate an C.V.

Phytophthora infestans = assay type: in vivo; details: Tomato Late Blight
Puccinia recondita = test: Fungicidal activity against Wheat Leaf Rust (WLR) disease; assay type: in vivo; details: Wheat Leaf Rust
Erysiphae graminis = test: Fungicidal activity against Barley Powdery Mildew (BPM) disease; assay type: in vivo; details: Barley Powdery Mildew
Rhizoctonia solani AG-1 = test: Fungicidal activity against Rice Sheath Blight (RSB) disease; details: Rice Sheath Blight

SMILES	RCV (Fungicidal Activities, C.V.) ([1]; concentration 50 ppm)	CGM (Fungicidal Activities, C.V.) (Botrytis cinerae)	TLB (Fungicidal Activities, C.V.) (Phytophthora infestans; concentration 50 ppm)	WLR (Fungicidal Activities, C.V.) (Puccinia recondita; concentration 50 ppm)	BPM (Fungicidal Activities, C.V.) (Erysiphae graminis; concentration 50 ppm)	RSB (Fungicidal Activities, C.V.) (Rhizoctonia solani AG-1; concentration 50 ppm)	RCV (Fungicidal Activities, C.V.) ([1]; concentration 2 ppm)	TLB (Fungicidal Activities, C.V.) (Phytophthora infestans; concentration 2 ppm)	WLR (Fungicidal Activities, C.V.) (Puccinia recondita; concentration 2 ppm)	BPM (Fungicidal Activities, C.V.) (Erysiphae graminis; concentration 2 ppm)	RSB (Fungicidal Activities, C.V.) (Rhizoctonia solani AG-1; concentration 2 ppm)
CON=C(C(=O)OC)c1ccccc1CON=Cc1cccc(OC(F)=Cc2ccc(F)cc2)c1 [Compound 27]	100%	0%	69%	86%	91%	25%	–	–	–	–	–
CON=C(C(=O)OC)c1ccccc1CON=Cc1cccc(OC(F)=Cc2ccc(Cl)cc2)c1 [Compound 28]	99%	9%	38%	100%	95%	50%	66%	50%	97%	86%	0%
CON=C(C(=O)OC)c1ccccc1CON=Cc1cccc(OC(F)=Cc2ccc3c(c2)OCO3)c1 [Compound 29]	100%	0%	84%	88%	80%	35%	93%	78%	96%	41%	20%
CNC(=O)C(=NOC)c1ccccc1CON=Cc1cccc(OC(F)=Cc2cccc(C)c2)c1 [Compound 31]	100%	25%	8%	100%	100%	52%	97%	–	83%	8%	–
CNC(=O)C(=NOC)c1ccccc1CON=Cc1cccc(OC(F)=Cc2ccc(C)c(C)c2)c1 [Compound 32]	100%	8%	0%	99%	100%	41%	99%	–	3%	0%	–
CCc1ccc(C=C(F)Oc2cccc(C=NOCc3ccccc3C(=NOC)C(=O)NC)c2)cc1 [Compound 33]	96%	0%	0%	96%	100%	17%	97%	–	10%	0%	–
CNC(=O)C(=NOC)c1ccccc1CON=Cc1cccc(OC(F)=Cc2cccc(OC)c2)c1 [Compound 35]	100%	0%	0%	97%	100%	52%	97%	–	83%	0%	–
CCOc1ccc(C=C(F)Oc2cccc(C=NOCc3ccccc3C(=NOC)C(=O)NC)c2)cc1 [Compound 36]	100%	0%	0%	93%	100%	0%	88%	–	0%	0%	–
CNC(=O)C(=NOC)c1ccccc1CON=Cc1cccc(OC(F)=Cc2ccc(F)cc2)c1 [Compound 37]	100%	0%	0%	98%	100%	29%	98%	–	37%	42%	–
CNC(=O)C(=NOC)c1ccccc1CON=Cc1cccc(OC(F)=Cc2cccc(Cl)c2)c1 [Compound 38]	100%	0%	0%	100%	100%	64%	97%	–	99%	87%	–
CNC(=O)C(=NOC)c1ccccc1CON=Cc1cccc(OC(F)=Cc2ccc3c(c2)OCO3)c1 [Compound 39]	100%	0%	83%	100%	100%	58%	93%	–	0%	0%	–
